Structures can show the parent of a compound that is named as a salt. Where two headings read alike, the source gives them in different places.
Legend:
[1] = biological target: T1, SARS-CoV-2 PLpro (nsp3 1564–1878) (Severe acute respiratory syndrome coronavirus 2, UniProt P0DTD1); assay: biochemical; set-up: FRET-quenched peptide (Pro3) cleavage by PLpro, 10 min pre-incubation, slope over 20 min, normalised to no-compound control; settings: low concentration screen, read-out: % of control remaining
[2] = biological target: T1, SARS-CoV-2 PLpro (nsp3 1564–1878); assay: biochemical; set-up: FRET-quenched peptide (Pro3) cleavage by PLpro, 10 min pre-incubation, slope over 20 min, normalised to no-compound control; settings: high concentration screen, read-out: % of control remaining

## COc1ccc2cc1Oc1ccc(cc1)C[C@H]1c3c(cc4c(c3Oc3cc5c(cc3OC)CCN(C)[C@@H]5C2)OCO4)CCN1C [Cepharanthine]
[1]; Well no.=3555
  remaining activity at 1.25 µM: 102%
[2]; Well no.=3555
  remaining activity at 3.75 µM: 106%

## Cn1ccnc1 [1-Methylimidazole]
[1]; Well no.=939
  remaining activity at 1.25 µM: 101%
[2]; Well no.=939
  remaining activity at 3.75 µM: 102%

## Cc1cccc(-c2nn3c(c2-c2ccnc4ccc(C(N)=O)cc24)CCC3)n1 [LY2157299]
[1]; Well no.=4856
  remaining activity at 1.25 µM: 99.9%
[2]; Well no.=4856
  remaining activity at 3.75 µM: 98.9%

## O=c1cc(-c2ccc(O)cc2)oc2c([C@@H]3O[C@H](CO)[C@@H](O)[C@H](O)[C@H]3O)c(O)cc(O)c12 [Vitexin]
[1]; Well no.=3396
  remaining activity at 1.25 µM: 95.4%
[2]; Well no.=3396
  remaining activity at 3.75 µM: 97.6%

## O=C(O)/C=C/c1ccc(O)c(O)c1 [Caffeic acid]
[1]; Well no.=233
  remaining activity at 1.25 µM: 99%
[1]; Well no.=3957
  remaining activity at 1.25 µM: 97%
[1]; Well no.=7073
  remaining activity at 1.25 µM: 101%
[2]; Well no.=233
  remaining activity at 3.75 µM: 99.3%
[2]; Well no.=3125
  remaining activity at 3.75 µM: 104%
[2]; Well no.=3957
  remaining activity at 3.75 µM: 96.7%
[2]; Well no.=7073
  remaining activity at 3.75 µM: 95.2%

## CC(Nc1nc(N2CCCC2)nc2ccccc12)c1ccccc1 (centres unmarked) [Importazole]
[1]; Well no.=5622
  remaining activity at 1.25 µM: 95.6%
[2]; Well no.=5622
  remaining activity at 3.75 µM: 96.8%

## O[C@H]1[C@H]2c3cc4c(cc3CN3CCC(=C[C@@H]1O)[C@H]23)OCO4 [Lycorine]
[1]; Well no.=3379
  remaining activity at 1.25 µM: 99.9%
[2]; Well no.=3379
  remaining activity at 3.75 µM: 99.5%

## C/C=C(/C)C(=O)O[C@H]1C(C)=C2[C@H]([C@@H]1OC(=O)CCCCCCC)[C@@](C)(OC(C)=O)C[C@H](OC(=O)CCC)[C@@]1(O)[C@H]2OC(=O)[C@@]1(C)O [Thapsigargin]
[1]; Well no.=1470
  remaining activity at 1.25 µM: 98%
[1]; Well no.=3184
  remaining activity at 1.25 µM: 107%
[2]; Well no.=1470
  remaining activity at 3.75 µM: 95.1%
[2]; Well no.=3184
  remaining activity at 3.75 µM: 107%

## Oc1nc(-c2ccc(C(F)(F)F)cc2)nc2c1CSCC2 [XAV-939]
[1]; Well no.=4719
  remaining activity at 1.25 µM: 102%
[2]; Well no.=4719
  remaining activity at 3.75 µM: 103%

## Cc1cncc(CN2CCC(=C3c4ccc(Cl)cc4CCc4cccnc43)CC2)c1 [Rupatadine (Fumarate)]
[1]; Well no.=7665
  remaining activity at 1.25 µM: 98.2%
[2]; Well no.=7665
  remaining activity at 3.75 µM: 102%

## CCCOc1ccccc1-c1nc2[nH]nnc2c(=O)[nH]1 [Zaprinast]
[1]; Well no.=1342
  remaining activity at 1.25 µM: 99.6%
[1]; Well no.=2188
  remaining activity at 1.25 µM: 92%
[2]; Well no.=1342
  remaining activity at 3.75 µM: 101%
[2]; Well no.=2188
  remaining activity at 3.75 µM: 95.6%

## COc1ccc(C(=O)CC2(O)C(=O)Nc3c(Cl)ccc(Cl)c32)cc1 (centres unmarked) [YK-4-279]
[1]; Well no.=6444
  remaining activity at 1.25 µM: 97.8%
[2]; Well no.=6444
  remaining activity at 3.75 µM: 98.7%

## C[C@]12CC[C@@H](O)C[C@@H]1CC[C@@H]1[C@@H]2CC[C@]2(C)[C@@H](O)CC[C@@H]12 [5alpha-Androstane-3alpha,17beta-diol]
[1]; Well no.=244
  remaining activity at 1.25 µM: 98.9%
[2]; Well no.=244
  remaining activity at 3.75 µM: 94.8%

## CC(N)[C@H](O)c1ccc(O)c(O)c1 (single isomer, unassigned; (-)) [(-)-alpha-Methylnorepinephrine]
[1]; Well no.=547
  remaining activity at 1.25 µM: 102%
[2]; Well no.=547
  remaining activity at 3.75 µM: 103%

## O=C(O)c1ccc(CO)o1 [5-Hydroxymethyl-2-furancarboxylic acid]
[1]; Well no.=6689
  remaining activity at 1.25 µM: 97.9%
[2]; Well no.=6689
  remaining activity at 3.75 µM: 98.1%

## CCCCCN(CCCCC)C(=O)C(CCC(=O)O)NC(=O)c1ccc(Cl)c(Cl)c1 (centres unmarked) [Lorglumide]
[1]; Well no.=2276
  remaining activity at 1.25 µM: 96.2%
[2]; Well no.=2276
  remaining activity at 3.75 µM: 98.3%

## COc1ccnc(C[S+]([O-])c2nc3cc(OC(F)F)ccc3[nH]2)c1OC (centres unmarked) [sodium 5-(difluoromethoxy)-2-((3,4-dimethoxypyridin-2-yl)methylsulfinyl)benzo[d]imidazol-1-ide hydrate]
[1]; Well no.=5829
  remaining activity at 1.25 µM: 95.3%
[2]; Well no.=5829
  remaining activity at 3.75 µM: 96.9%

## COc1ccc(-n2c(SCC#N)nc3sc4c(c3c2=O)CCCC4)cc1 [Necrostatin-5]
[1]; Well no.=6060
  remaining activity at 1.25 µM: 98.5%
[2]; Well no.=6060
  remaining activity at 3.75 µM: 95.8%

## CCc1oc2ccccc2c1C(=O)c1cc(Br)c(O)c(Br)c1 [Benzbromarone]
[1]; Well no.=8442
  remaining activity at 1.25 µM: 86.8%
[2]; Well no.=8442
  remaining activity at 3.75 µM: 85.1%

## Nc1nc2ccccc2c2ccccc12 [6-phenanthridinamine]
[1]; Well no.=5389
  remaining activity at 1.25 µM: 106%
[2]; Well no.=5389
  remaining activity at 3.75 µM: 102%

## OCCOCCN1CCN(C(c2ccccc2)c2ccccc2)CC1 [Decloxizine (dihydrochloride)]
[1]; Well no.=8189
  remaining activity at 1.25 µM: 102%
[2]; Well no.=8189
  remaining activity at 3.75 µM: 103%

## C=C1/C(=C\C=C2/CCC[C@]3(C)[C@@H]([C@H](C)CCCC(C)C)CC[C@@H]23)C[C@@H](O)C[C@@H]1O [Alfacalcidol]
[1]; Well no.=1854
  remaining activity at 1.25 µM: 96.4%
[2]; Well no.=1854
  remaining activity at 3.75 µM: 99.8%

## CNS(=O)(=O)CCc1ccc2[nH]cc(C3CCN(C)CC3)c2c1 [Naratriptan HCl]
[1]; Well no.=4909
  remaining activity at 1.25 µM: 97.9%
[2]; Well no.=4909
  remaining activity at 3.75 µM: 99.8%

## NCCc1c[nH]cn1 [Histamine]
[1]; Well no.=6665
  remaining activity at 1.25 µM: 105%
[1]; Well no.=7059
  remaining activity at 1.25 µM: 102%
[2]; Well no.=6665
  remaining activity at 3.75 µM: 103%
[2]; Well no.=7059
  remaining activity at 3.75 µM: 109%

## N#Cc1c(C2CCNCC2)cc(-c2c(O)cccc2OCC2CC2)nc1N [IKK-2 Inhibitor VIII]
[1]; Well no.=2441
  remaining activity at 1.25 µM: 104%
[2]; Well no.=2441
  remaining activity at 3.75 µM: 108%

## COc1ccc(-c2coc3cc(O)ccc3c2=O)cc1 [Formononetin]
[1]; Well no.=3611
  remaining activity at 1.25 µM: 96.9%
[2]; Well no.=3611
  remaining activity at 3.75 µM: 96.2%

## CO[C@H](C(=O)[C@@H](O)[C@@H](C)O)[C@@H]1Cc2cc3cc(O[C@H]4C[C@@H](O[C@@H]5C[C@@H](O)[C@H](O)[C@@H](C)O5)[C@H](O)[C@@H](C)O4)c(C)c(O)c3c(O)c2C(=O)[C@H]1O[C@H]1C[C@@H](O[C@@H]2C[C@@H](O)[C@@H](O[C@@H]3C[C@](C)(O)[C@H](O)[C@@H](C)O3)[C@@H](C)O2)[C@H](O)[C@@H](C)O1 [Plicamycin]
[1]; Well no.=1666
  remaining activity at 1.25 µM: 107%
[2]; Well no.=1666
  remaining activity at 3.75 µM: 106%

## CCC(Sc1nnc2c(n1)[nH]c1ccccc12)C(=O)N1c2ccccc2Sc2ccccc21 (centres unmarked) [10-[2-(5H-[1,2,4]triazino[5,6-b]indol-3-ylsulfanyl)butanoyl]-10H-phenothiazine]
[1]; Well no.=5509
  remaining activity at 1.25 µM: 110%
[2]; Well no.=5509
  remaining activity at 3.75 µM: 108%

## CCc1ccn2ccnc2c1N1CCCN([C@@H](CC(N)=O)C2CCN(C(=O)[C@H]3C[C@@H]4CC[C@H]3O4)CC2)CC1 [CXCR7 modulator 2]
[1]; Well no.=8557
  remaining activity at 1.25 µM: 112%
[2]; Well no.=8557
  remaining activity at 3.75 µM: 108%

## CNCC(=O)c1ccc(O)c(O)c1 [Adrenalone (hydrochloride)]
[1]; Well no.=7433
  remaining activity at 1.25 µM: 103%
[2]; Well no.=7433
  remaining activity at 3.75 µM: 103%

Reference: paper PMC8286840, “Identifying SARS-CoV-2 antiviral compounds by screening for small molecule inhibitors of Nsp3 papain-like protease” (Biochemical Journal, 2021)
